From US20250041429A1, “COMPOUND HAVING BTK PROTEIN DEGRADATION ACTIVITY, AND MEDICAL USES THEREOF” (UBIX THERAPEUTICS, INC., priority 2021, published 2025)

Target: T1, BTK protein (Homo sapiens, UniProt Q06187)
T1 construct: endogenous in cells; host or cells: TMD-8 cells
Assay: Measurement of BTK protein degradation ability in TMD-8 cells (Western blotting)
Type: cell-based
Conditions: harvested after 24 hours; for BTK degradation (%) 1 nM: compound 1 nM; for BTK degradation (%) 10 nM: compound 10 nM; for BTK degradation (%) 100 nM: compound 100 nM
Summary of the method: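 TMD-8 cells (1×10^6/mL) were treated for 24 h with compound at 0.1, 1, 10 μM or 0.0001–0.1 μM, with DMSO as vehicle control. RIPA lysates were normalized by BCA assay. BTK was detected by Western blot with anti-BTK, using GAPDH or β-actin as loading controls, and imaged on LI-COR Odyssey.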

T1 sequence (Q06187 whole entry): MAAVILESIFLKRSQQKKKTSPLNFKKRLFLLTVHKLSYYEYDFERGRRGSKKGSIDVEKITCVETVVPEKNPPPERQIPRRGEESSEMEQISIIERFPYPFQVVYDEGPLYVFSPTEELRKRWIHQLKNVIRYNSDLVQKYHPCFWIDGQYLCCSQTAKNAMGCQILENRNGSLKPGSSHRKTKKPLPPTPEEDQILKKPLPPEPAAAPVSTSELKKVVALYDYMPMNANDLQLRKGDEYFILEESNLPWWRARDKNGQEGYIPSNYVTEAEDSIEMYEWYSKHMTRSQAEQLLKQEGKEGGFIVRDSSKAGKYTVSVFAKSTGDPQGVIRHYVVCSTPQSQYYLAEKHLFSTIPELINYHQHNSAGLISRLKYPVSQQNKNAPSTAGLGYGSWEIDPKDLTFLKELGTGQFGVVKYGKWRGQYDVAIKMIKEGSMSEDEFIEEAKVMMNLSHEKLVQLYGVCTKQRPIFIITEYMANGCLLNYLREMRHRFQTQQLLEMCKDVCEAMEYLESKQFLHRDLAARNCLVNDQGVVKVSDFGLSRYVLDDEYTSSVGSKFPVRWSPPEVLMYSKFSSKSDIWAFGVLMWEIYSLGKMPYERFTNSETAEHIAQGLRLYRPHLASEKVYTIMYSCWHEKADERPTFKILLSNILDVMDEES

SMILES	BTK degradation (%) 1 nM [%]	BTK degradation (%) 10 nM [%]	BTK degradation (%) 100 nM [%]
Cc1cc(-c2ccnc(Nc3ccc(N4CCN(CC5CN(C(=O)c6cccc(NC7CCC(=O)NC7=O)c6)C5)CC4)cc3)n2)ccc1CNC(=O)c1cnn(C(C)C)c1 (stereo not drawn) [Example 94, N-(4-(2-((4-(4-((1-(3-((2,6-dioxopiperidin-3-yl)amino)benzoyl)azetidin-3-yl)methyl)piperazin-1-yl)phenyl)amino)pyrimidin-4-yl)-2-methylbenzyl)-1-isopropyl-1H-pyrazole-4-carboxamide]	59.5	93.5	98.5
Cc1cc(-c2ccnc(Nc3ccc(C4CCN(CC5CCN(c6ccc7c(c6)C(=O)N(C6CCC(=O)NC6=O)C7=O)CC5)CC4)cc3)n2)ccc1CNC(=O)N1CC(OC(C)C)C1 (stereo not drawn) [Example 15, N-(4-(2-((4-(1-((1-(2-(2,6-dioxopiperidin-3-yl)-1,3-dioxoisoindolin-5-yl)piperidin-4-yl)methyl)piperidin-4-yl)phenyl)amino)pyrimidin-4-yl)-2-methylbenzyl)-3-isopropoxyazetidine-1-carboxamide]	56.5	95.5	99
Cc1cc(-c2ccnc(Nc3ccc(N4CCC(CN5CCC(c6ccc(OC7CCC(=O)NC7=O)cn6)CC5)CC4)cc3)n2)ccc1CNC(=O)N1CC(OC(C)C)C1 (stereo not drawn) [Example 124, N-(4-(2-((4-(4-((4-(5-((2,6-dioxopiperidin-3-yl)oxy)pyridin-2-yl)piperidin-1-yl)methyl)piperidin-1-yl)phenyl)amino)pyrimidin-4-yl)-2-methylbenzyl)-3-isopropoxyazetidine-1-carboxamide]	−1.3	63.7	97.7
Cc1cc(-c2ccnc(Nc3ccc(C4CCN(CC5CCN(c6cccc(N7CCC(=O)NC7=O)c6)CC5)CC4)cc3)n2)ccc1CNC(=O)c1cnn(C(C)C)c1 [Example 84, N-(4-(2-((4-(1-((1-(3-(2,4-dioxotetrahydropyrimidin-1 (2H)-yl)phenyl)piperidin-4-yl)methyl)piperidin-4-yl)phenyl)amino)pyrimidin-4-yl)-2-methylbenzyl)-1-isopropyl-1H-pyrazole-4-carboxamide]	36.0	92.0	99.0
Cc1cc(-c2ccnc(Nc3ccc(C4CCN(CC5CCN(c6ccc(NC7CCC(=O)NC7=O)cc6)CC5)CC4)cc3)n2)ccc1CNC(=O)N1CC(OC(C)C)C1 (stereo not drawn) [Example 56, N-(4-(2-((4-(1-((1-(4-((2,6-dioxopiperidin-3-yl)amino)phenyl)piperidin-4-yl)methyl)piperidin-4-yl)phenyl)amino)pyrimidin-4-yl)-2-methylbenzyl)-3-isopropoxyazetidine-1-carboxamide]	13.7	91.3	99.7
Cc1cc(-c2ccnc(Nc3ccc(N4CCC(CN5CCC(c6cccc(N7CCC(=O)NC7=O)c6)CC5)CC4)cc3)n2)ccc1CNC(=O)c1cn(C(C)(C)C)nn1 [Example 138, 1-(tert-butyl)-N-(4-(2-((4-(4-((4-(3-(2,4-dioxotetrahydropyrimidin-1 (2H)-yl)phenyl)piperidin-1-yl)methyl)piperidin-1-yl)phenyl)amino)pyrimidin-4-yl)-2-methylbenzyl)-1H-1,2,3-triazole-4-carboxamide]	15.5	71.5	90.0
Cc1cc(-c2ccnc(Nc3ccc(N4CCN(CC5CCN(c6cc7c(cc6F)C(=O)N(C6CCC(=O)NC6=O)C7=O)CC5)CC4)cc3)n2)ccc1CNC(=O)N1CC(OC(C)C)C1 (stereo not drawn) [Example 12, N-(4-(2-((4-(4-((1-(2-(2,6-dioxopiperidin-3-yl)-6-fluoro-1,3-dioxoisoindolin-5-yl)piperidin-4-yl)methyl)piperazin-1-yl)phenyl)amino)pyrimidin-4-yl)-2-methylbenzyl)-3-isopropoxyazetidine-1-carboxamide]	23.5	84.5	98.5
Cc1cc(-c2ccnc(Nc3ccc(N4CCN(CC5CCN(C(=O)c6cccc(NC7CCC(=O)NC7=O)c6)CC5)CC4)cc3)n2)ccc1CNC(=O)c1cn(C(C)(C)C)nn1 (stereo not drawn) [Example 97]	67.5	94.0	98.5
Cc1cc(-c2ccnc(Nc3ccc(N4CCC(CN5CCC(c6ccc(NC7CCC(=O)NC7=O)cn6)CC5)CC4)cc3)n2)ccc1CNC(=O)c1cnn(C(C)(C)C)c1 (stereo not drawn) [Example 130, 1-(tert-butyl)-N-(4-(2-((4-(4-((4-(5-((2,6-dioxopiperidin-3-yl)amino)pyridin-2-yl)piperidin-1-yl)methyl)piperidin-1-yl)phenyl)amino)pyrimidin-4-yl)-2-methylbenzyl)-1H-pyrazole-4-carboxamide]	56.5	95.0	99.5
Cc1cc(-c2ccnc(Nc3ccc(N4CCN(CC5CCN(c6ccc7c(c6)C(=O)N(C6CCC(=O)NC6=O)C7=O)CC5)CC4)nc3)n2)ccc1CNC(=O)N1CC(OC(C)C)C1 (stereo not drawn) [Example 17, N-(4-(2-((6-(4-((1-(2-(2,6-dioxopiperidin-3-yl)-1,3-dioxoisoindolin-5-yl)piperidin-4-yl)methyl)piperazin-1-yl)pyridin-3-yl)amino)pyrimidin-4-yl)-2-methylbenzyl)-3-isopropoxyazetidine-1-carboxamide]	37	91	98
Cc1cc(-c2ccnc(Nc3cnn(C4CCN(CC5CN(C(=O)c6cccc(NC7CCC(=O)NC7=O)c6)C5)CC4)c3)n2)ccc1CNC(=O)N1CC(OC(C)C)C1 (stereo not drawn) [Example 92, N-(4-(2-((1-(1-((1-(3-((2,6-dioxopiperidin-3-yl)amino)benzoyl)azetidin-3-yl)methyl)piperidin-4-yl)-1H-pyrazol-4-yl)amino)pyrimidin-4-yl)-2-methylbenzyl)-3-isopropoxyazetidine-1-carboxamide]	7.0	33.5	89.0
Cc1cc(-c2ccnc(Nc3ccc(N4CCN(CC5CCN(c6cccc(N7CCC(=O)NC7=O)c6)CC5)CC4)nc3)n2)ccc1CNC(=O)c1cnn(C(C)C)c1 [Example 82, N-(4-(2-((6-(4-((1-(3-(2,4-dioxotetrahydropyrimidin-1 (2H)-yl)phenyl)piperidin-4-yl)methyl)piperazin-1-yl)pyridin-3-yl)amino)pyrimidin-4-yl)-2-methylbenzyl)-1-isopropyl-1H-pyrazole-4-carboxamide]	32.0	87.5	99.5

Second part, the compound after the results:

BTK degradation (%) 1 nM [%]	BTK degradation (%) 10 nM [%]	BTK degradation (%) 100 nM [%]	SMILES
0.5	10.5	77.0	Cc1cc(-c2ccnc(Nc3ccc(CN4CCC(CN5CCC(c6cccc(N7CCC(=O)NC7=O)c6)CC5)CC4)cc3)n2)ccc1CNC(=O)c1cn(C(C)(C)C)nn1 [Example 140]
21.5	73	94.5	Cc1c(NC(=O)N2CC(OC(C)C)C2)cc(F)cc1-c1ccnc(Nc2ccc(N3CCN(CC4CN(c5ccc6c(n5)CN(C5CCC(=O)NC5=O)C6=O)C4)CC3)cc2)n1 (stereo not drawn) [Example 108, N-(3-(2-((4-(4-((1-(6-(2,6-dioxopiperidin-3-yl)-5-oxo-6,7-dihydro-5H-pyrrolo[3,4-b]pyridin-2-yl)azetidin-3-yl)methyl)piperazin-1-yl)phenyl)amino)pyrimidin-4-yl)-5-fluoro-2-methylphenyl)-3-isopropoxyazetidine-1-carboxamide]
57.0	97.5	100.0	Cc1cc(-c2ccnc(Nc3ccc(N4CCN(CC5CCN(c6ccc(NC7CCC(=O)NC7=O)cn6)CC5)CC4)cc3)n2)ccc1CNC(=O)c1cn(C(C)(C)C)nn1 (stereo not drawn) [Example 62]
1.0	56.0	96.5	Cc1cc(-c2ccnc(Nc3ccc(N4CCC(C(=O)N5CCC(c6cccc(NC7CCC(=O)NC7=O)c6)CC5)CC4)cc3)n2)ccc1CNC(=O)N1CC(OC(C)C)C1 (stereo not drawn) [Example 116, N-(4-(2-((4-(4-(4-(3-((2,6-dioxopiperidin-3-yl)amino)phenyl)piperidine-1-carbonyl)piperidin-1-yl)phenyl)amino)pyrimidin-4-yl)-2-methylbenzyl)-3-isopropoxyazetidine-1-carboxamide]
51.5	94.5	99.0	Cc1cc(-c2ccnc(Nc3ccc(N4CCC(CN5CCC(c6ccc(NC7CCC(=O)NC7=O)cn6)CC5)CC4)cc3)n2)ccc1CNC(=O)c1cnn(C(C)C)c1 (stereo not drawn) [Example 128, N-(4-(2-((4-(4-((4-(5-((2,6-dioxopiperidin-3-yl)amino)pyridin-2-yl)piperidin-1-yl)methyl)piperidin-1-yl)phenyl)amino)pyrimidin-4-yl)-2-methylbenzyl)-1-isopropyl-1H-pyrazole-4-carboxamide]
46.5	91.0	98.0	Cc1cc(-c2ccnc(Nc3ccc(C4CCN(CC5CN(c6ccc7c(c6)C(=O)N(C6CCC(=O)NC6=O)C7=O)C5)CC4)cc3)n2)ccc1CNC(=O)c1cn(C(C)(C)C)nn1 (stereo not drawn) [Example 46, 1-(tert-butyl)-N-(4-(2-((4-(1-((1-(2-(2,6-dioxopiperidin-3-yl)-1,3-dioxoisoindolin-5-yl)azetidin-3-yl)methyl)piperidin-4-yl)phenyl)amino)pyrimidin-4-yl)-2-methylbenzyl)-1H-1,2,3-triazole-4-carboxamide]
